The values that follow come from patent publication US4721715A, “Derivatives of 4-(arylpiperazinyl-ethylaminoethoxy) phenol useful for effecting hypolipidemic therapy or cardiovascular therapy” (Societe Cortial, S.A., priority 1984, dated 1988).

Structures can show the parent of a compound that is named as a salt. Where two headings read alike, the source gives them in different places.

Data set [1] is described as follows: Solubility and hygroscopicity of the isolated product. It is filed as physicochemical. As to conditions: dihydrochloride. The method, then: A solution of 6 g 4-isopropyl-2-methyl-4-methylaminoethoxy phenol and 6 g 1-chloroethyl-4-phenylpiperazine in 10 ml triethylamine and 150 ml ethyl alcohol is heated for 20 hours in a reflux system. The excess ethyl alcohol and triethylamine are evaporated. The residue is taken up in an aqueous solution of hydrochloric acid. The solution obtained is extracted with chloroform. The aqueous phase is alkalized with ammonia and then extracted again with chloroform. After drying and evaporation of the chloroform, 9.3 g of crude product is obtained. This is purified by silica chromatography using as the eluent pure chloroform followed by a mixture of 98% chloroform and 2% methanol. This procedure yield 4.6 g of free base; yield, 42%. The latter is transformed into a hydrochloride by a saturated ethyl ether solution in gaseous hydrochloric acid. This produces a white solid which is filtered and washed with a little ethyl ether.

For data set [2], the system named is mice. Nature of the data set: Toxicity, intraperitoneal administration to mice.
The next data set concerns left guinea pig auricle. Nature of the data set: Anticalcium activity: electrically stimulated left guinea pig auricle, calcium-induced contraction force. As to conditions: 25.10^-6 g/ml; 0.6 mM calcium added; 150 beats/min, low calcium Tyrode's solution.
Data set [3] relates to isolated guinea pig ileum (histamine). Description: Antihistamine activity in vitro: histamine-induced contractions of isolated guinea pig ileum. As to conditions: 10^-5 g/ml; histamine 5.10^-7 g/ml.
The subject of data set [4] is phenylephrine-induced hypertension. Description: Alpha-blocking activity in vivo: antagonism of phenylephrine-induced hypertension in rats with spinal cord removal and bivagotomy. The conditions noted are these: Rattus norvegicus, intravenous. The method, then: (§1) Alpha-blocking activity was determined in vivo in mice with the test involving inhibition of mydriasis induced by norepinephrine. […] Thirty minutes later, 0.75 mg/kg norepinephrine was administered intravenously. […] In vivo alpha-blocking activity was also evaluated by determination of antagonism of phenylephrine-induced hypertension. The test products were administered by the intravenous route to rats that had undergone spinal cord removal and bivagotomy according to the technique by J. S. Gillespie and T. S. Muir (Br. J. Pharmac. Chemother. 30:78-87, 1967). The dosage, maximum activity, and the interval after which residual activity was equal to 50% of the maximum activity are presented below: […]

Another data set relates to Alpha-1. Description: Alpha-1 blocking activity in vitro: antagonism of norepinephrine-induced contractions of isolated rabbit aorta strips. As to conditions: norepinephrine 2.10^-6 mol/1.
Data set [5] deals with strips of mesenteric veins. Description: Anticalcium activity: calcium-induced increment of spontaneous contractions in mesenteric vein strips. As to conditions: 5.10^-6 g/ml, rats with normal blood pressure. The text has this: At 5.10^-6 g/ml, COR 2838 inhibited the calcium-induced increment of spontaneous contractions in strips of mesenteric veins from rats with normal blood pressure.

Data set [6] relates to isolated guinea pig ileum (serotonin). Description: Antiserotonin activity in vitro: serotonin-induced contractions of isolated guinea pig ileum. The conditions noted are these: 4.10^-7 g/ml; serotonin 10^-6 g/ml. The text has this: Antiserotonin Activity: In vitro, contractions induced in isolated guinea pig ileum by 10^-6 g/ml serotonin were inhibited by COR 2838 in a concentration of 4.10^-7 g/ml and COR 2831 and COR 2833 in a concentration of 2.10^-6 g/ml.

In data set [7] the test system is passive cutaneous anaphylaxis. Nature of the data set: Passive cutaneous anaphylaxis test in rats. Type of data set: in vivo. The conditions noted are these: intravenous, 10 mg/kg. The method, then: Antiallergy-Antihistamine Activity: In the passive cutaneous anaphylaxis test, COR 2833 and COR 2838 given to rats in an intravenous dose of 10 mg/kg produced 53 and 60% activity, respectively. Under the same conditions, COR 2831 produced 67% activity in an oral dose of 5 mg/kg.

Data set [8] in a line: Toxicity, oral administration to mice. Type of data set: in vivo. As to conditions: mouse, in vivo, oral route, confidence interval in parentheses.
The nature of data set [9]: Toxicity, intravenous administration to mice. It is filed as in vivo. As to conditions: mouse, in vivo, intravenous, read-out: mortality rate.
Data set [10] deals with mice. Description: Toxicity, intravenous administration to mice. Type of data set: in vivo. As to conditions: intravenous, 6.2 mg/kg.
Data set [11] relates to spontaneously hypertensive rats. Nature of the data set: Antihypertensive activity, spontaneously hypertensive rats, oral, arterial pressure at the tail. The conditions noted are these: 100 mg/kg. Type of data set: in vivo. The method, then: In another experiment that was also performed with oral administration in spontaneously hypertensive rats, arterial pressure was measured indirectly at the tail two, four and six hours after administration.

The subject of data set [12] is mice with hypercholesterolemia. Nature of the data set: Hypolipidemic activity in mice with diet-induced hypercholesterolemia. It is filed as in vivo. As to conditions: oral 100 mg/kg on the sixth and seventh day. The method, then: Hypolipidemic Activity: In mice with hypercholesterolemia produced by a diet high in cholesterol and cholic acid fed for seven days, administration of an oral dose of 100 mg/kg COR 2865 on the sixth and seventh day brought about a reduction in serum cholesterol of 31% and a reduction of HP-betalipoproteins of 38% as well as a decrease in the VLDL+LDL/cholesterol ratio.

Data set [13] deals with stereotypy induced by apomorphine. Nature of the data set: Neuroleptic activity: inhibition of apomorphine-induced stereotypy in rats. As to conditions: 100 mg/kg intraperitoneal, apomorphine 2.5 mg/kg subcutaneous.
Data set [14] has as its system climbing induced by apomorphine. Nature of the data set: Neuroleptic activity: climbing test (apomorphine) in mice. As to conditions: apomorphine 1.5 mg/kg. It is filed as in vivo. The method, then:
The neuroleptic activity of COR 2865 was determined in the climbing test. […] They were given 1.5 mg/kg apomorphine in order to induce a maximum climbing level.

Data set [15] relates to norepinephrine-induced mydriasis. Description: Alpha-blocking activity in vivo: inhibition of norepinephrine-induced mydriasis in mice. The conditions noted are these: 30 min before 0.75 mg/kg norepinephrine IV. The method, then:
as §1

As to `Cc1cc(OCCN(C)CCN2CCN(c3ccccc3)CC2)c(C(C)C)cc1O` [COR 2838, 5-Isopropyl-2-methyl-4-((N-methyl N-2-(phenylpiperazinyl-ethyl)amino)ethoxy) phenol dihydrochloride], in data set [1], the hygroscopicity entry is “hygroscopic” and the solubility in water result was “soluble in water”. For the same molecule, in the data set on mice [2] (mouse, in vivo, ip, 50 mg/kg), the deaths result was “no deaths”. Also, the “inhibition of the increment in the contraction force induced by calcium” value with left guinea pig auricle was 50%. The “inhibition of histamine-induced contractions” value in data set [3] is on record as 80%. Moreover, the inhibition in vivo at 3 µmol/kg in [4] (3.10^-6 M/kg, read-out: maximum activity (antagonism of phenylephrine-induced hypertension)) came out at 60%. The “interval between introduction of the test product and of the […] into the bath, which corresponds to the maximum activity” value in the data set on Alpha-1 turned out to be 60 min. For the same molecule, in [5], the “inhibition of calcium-induced increment of spontaneous contractions” value is on record as “inhibited”. Also, the “inhibition of serotonin-induced contractions” value in data set [6] was “inhibited”. In [7], the “activity in the passive cutaneous anaphylaxis test” value was 60%.

With `CCOc1ccccc1N1CCN(CCOc2cc(C)c(O)cc2C(C)C)CC1` [COR 2865, 5-Isopropyl-2-methyl-4-((2-ethoxyphenyl)piperazinylethoxy) phenol hydrochloride], in data set [8], the median lethal dose (LD50) – broadly, the dose expected to kill half of the subjects tested – is 1440 mg/kg. Also, the deaths entry was “no deaths” with mice [2] (mice, intraperitoneal dose of 200 mg per kg) and “no deaths” with mice [10]. In addition, the mortality (usually the percentage killed) in data set [9] (12.5 mg/kg) was 10%; in [9] (25 mg/kg), 20%; in [9] (50 mg/kg), 5%; in data set [9] (100 mg/kg), 90%. In addition, the pressure reduction in data set [11] (four hours after administration) worked out at 21%; in [11] (six hours after administration), 23%; in data set [11] (two hours after administration), 19%. Moreover, in [12], the “reduction in serum cholesterol” value is on record as 31%. The “reduction of HP-betalipoproteins” value in data set [12] was found to be 38%. The “inhibition of apomorphine-induced stereotypy” value in [13] is on record as 67%. The results for the “inhibition of the climbing induced by apomorphine” value in data set [14] (10 mg per kg intraperitoneal) and in data set [14] (25 mg/kg intraperitoneal) were 83% and 100%, respectively. Besides, the ED50 (usually the midpoint of the dose-response relation) in data set [4] (2 min, after 2 min) came to 0.0117 µmol/kg; in [4] (0.5 h, after 30 min), 0.318 µmol/kg; in data set [4] (1 h, after 60 min), 0.5 µmol/kg. For the same molecule, the inhibition in vivo at 1 µM, 1 µmol/kg in data set [4] (10^-6 M/kg, read-out: maximum activity (antagonism of phenylephrine-induced hypertension)) amounted to 122%. For the same molecule, the values for the inhibition of mydriasis in [15] (1 mg/kg intraperitoneal) and in data set [15] (2.5 mg/kg intraperitoneal) were 54% and 80%, respectively.
